Results as given in ChEMBL document CHEMBL1156829 (Proc Natl Acad Sci U S A, 2008).

How the values were obtained:
Plasmodium falciparum [1] = experiment: NOVARTIS: Inhibition of Plasmodium falciparum W2 (drug-resistant) proliferation in erythrocyte-based infection assay; assay type: functional, organism-based; conditions: Plasmodium falciparum, W2; read-out: EC50
[2] = NOVARTIS: Cytotoxicity against human hepatocellular carcinoma cell line (Huh7); assay type: toxicity, cell-based, Huh-7; conditions: Huh7 cells (hepatocellular carcinoma cell line)
Plasmodium falciparum [3] = experiment: NOVARTIS: Inhibition of Plasmodium falciparum 3D7 (drug-susceptible) proliferation in erythrocyte-based infection assay; assay type: functional, organism-based; conditions: Plasmodium falciparum, 3D7

O=C(c1cc2nc(-c3ccccc3)cc(C(F)(F)F)n2n1)N1CCN(Cc2ccccc2)CC1
EC50 (Plasmodium falciparum [1]): 4590 nM | CC50 [2]: > 100000 nM | EC50 (Plasmodium falciparum [3]): 2920 nM

O=C(Nc1ccc(C(=O)Nc2ccc(C3=NCCCN3)cc2)cc1)Nc1ccc(C2=NCCCN2)cc1
EC50 (Plasmodium falciparum [1]): 20.4 nM | CC50 [2]: > 7280 nM | EC50 (Plasmodium falciparum [3]): 34.4 nM

O=C1Cc2ccccc2C(=C2CCNCC2)c2ccsc21
EC50 (Plasmodium falciparum [1]): 2040 nM | CC50 [2]: > 10000 nM | EC50 (Plasmodium falciparum [3]): 532 nM

CC1CCC2C(C)C(O)OC3OC4(C)CCC1C32OO4 (configuration not stated)
EC50 (Plasmodium falciparum [1]): 3.31 nM | CC50 [2]: > 10000 nM | EC50 (Plasmodium falciparum [3]): 7.05 nM

Cc1cc(=O)oc2c1ccc1oc(C(=O)c3ccccc3)c(C)c12
EC50 (Plasmodium falciparum [1]): 392 nM | CC50 [2]: > 100000 nM | EC50 (Plasmodium falciparum [3]): 441 nM

Cc1nc(N2CCC(C)CC2)c2c(C)c(C(=O)Nc3ccc(F)cc3)sc2n1
EC50 (Plasmodium falciparum [1]): > 912 nM | CC50 [2]: > 10000 nM | EC50 (Plasmodium falciparum [3]): 792 nM

COc1cc(/C=C(\C#N)c2nc3ccccc3[nH]2)ccc1OCc1ccc(Cl)cc1
EC50 (Plasmodium falciparum [1]): 558 nM | CC50 [2]: > 10000 nM | EC50 (Plasmodium falciparum [3]): 321 nM

COCCSc1nc2sc3c(c2c(=O)n1-c1ccc(OC)cc1)CCN(C)C3
EC50 (Plasmodium falciparum [1]): 1770 nM | CC50 [2]: > 100000 nM | EC50 (Plasmodium falciparum [3]): 3020 nM

CCOc1cc(S(=O)(=O)N2CCCC3(CCCCC3)C2)c(OCC)cc1-n1cnnn1
EC50 (Plasmodium falciparum [1]): > 563 nM | CC50 [2]: > 10000 nM | EC50 (Plasmodium falciparum [3]): > 1250 nM

O=C1C2C(C(=O)N1c1cccc3ccccc13)C1C=CC2C12CC2 (configuration not stated)
EC50 (Plasmodium falciparum [1]): 1090 nM | CC50 [2]: > 100000 nM | EC50 (Plasmodium falciparum [3]): 6590 nM

O=C1C(N2CCCCC2)=C(N2CCCCC2)C(=O)c2ccccc21
EC50 (Plasmodium falciparum [1]): 34.1 nM | CC50 [2]: 24900 nM | EC50 (Plasmodium falciparum [3]): 137 nM

COc1cc(CNCCCN(C)C)ccc1OCc1ccc(F)cc1Cl
EC50 (Plasmodium falciparum [1]): 159 nM | CC50 [2]: 4160 nM | EC50 (Plasmodium falciparum [3]): 92 nM

Cc1ccc2c(C)nc(NC(=N)N)nc2c1
EC50 (Plasmodium falciparum [1]): 756 nM | CC50 [2]: 48200 nM | EC50 (Plasmodium falciparum [3]): 406 nM

COc1ccccc1NC(=O)N(Cc1ccccc1)C(C)c1nc2ccccc2c(=O)n1-c1cc(C)ccc1C (configuration not stated)
EC50 (Plasmodium falciparum [1]): < 6.88 nM | CC50 [2]: > 6060 nM | EC50 (Plasmodium falciparum [3]): 451 nM

O=C(NCCCCCCNC(=O)Nc1nc(-c2ccc(F)cc2)cs1)Nc1nc(-c2ccc(F)cc2)cs1
EC50 (Plasmodium falciparum [1]): 5060 nM | CC50 [2]: 51600 nM | EC50 (Plasmodium falciparum [3]): 5970 nM

O=C1CN(C(=O)c2cc([N+](=O)[O-])c(N3CCCCC3)c([N+](=O)[O-])c2N2CCCCC2)c2ccccc2N1
EC50 (Plasmodium falciparum [1]): 1830 nM | CC50 [2]: 50400 nM | EC50 (Plasmodium falciparum [3]): 2190 nM

c1ccc(-c2ccccc2OCCNCCN2CCOCC2)cc1
EC50 (Plasmodium falciparum [1]): 2700 nM | CC50 [2]: 46800 nM | EC50 (Plasmodium falciparum [3]): 10100 nM

C#CCNC(=O)c1ccc(OC2CCN(CC(c3ccccc3)c3ccccc3)CC2)c(OC)c1
EC50 (Plasmodium falciparum [1]): 88.3 nM | CC50 [2]: 55000 nM | EC50 (Plasmodium falciparum [3]): 207 nM

CCOC(=O)C1=C(C)NC2=C(C(=O)CC(c3ccc(OC)c(OC)c3)C2)C1c1c(F)cccc1Cl (configuration not stated)
EC50 (Plasmodium falciparum [1]): 23 nM | CC50 [2]: > 100000 nM | EC50 (Plasmodium falciparum [3]): 76.7 nM

COc1ccc(OCCOCCN2CCN(C)CC2)cc1
EC50 (Plasmodium falciparum [1]): > 12500 nM | CC50 [2]: > 100000 nM | EC50 (Plasmodium falciparum [3]): > 8080 nM

CN1CCC(NCCc2ccc(Cl)cc2)CC1
EC50 (Plasmodium falciparum [1]): 210 nM | CC50 [2]: 18900 nM | EC50 (Plasmodium falciparum [3]): 909 nM

CCOc1ccc(N(C(=O)C2COc3ccccc3O2)C(C(=O)NC2CCCCC2)c2cn(C)nc2C)cc1 (configuration not stated)
EC50 (Plasmodium falciparum [1]): 614 nM | CC50 [2]: > 100000 nM | EC50 (Plasmodium falciparum [3]): 443 nM

CN(C)c1oc(-c2ccc(Cl)cc2Cl)nc1[P+](c1ccccc1)(c1ccccc1)c1ccccc1
EC50 (Plasmodium falciparum [1]): 365 nM | CC50 [2]: 11600 nM | EC50 (Plasmodium falciparum [3]): 230 nM

O=C1c2ccccc2C(=O)c2c1ccc1nonc21
EC50 (Plasmodium falciparum [1]): 88.6 nM | CC50 [2]: > 10000 nM | EC50 (Plasmodium falciparum [3]): 121 nM

CCCCNC(=O)N(CCCC(C)Nc1cc(OC)cc2cccnc12)Cc1ccc(OC)c(OC)c1 (configuration not stated)
EC50 (Plasmodium falciparum [1]): 422 nM | CC50 [2]: > 4470 nM | EC50 (Plasmodium falciparum [3]): 1260 nM

CC[n+]1c(/C=C/C=C2\N(C)c3ccccc3C2(C)C)n(Cc2ccccc2)c2ccccc21
EC50 (Plasmodium falciparum [1]): 219 nM | CC50 [2]: 2420 nM | EC50 (Plasmodium falciparum [3]): 355 nM

COC(=O)C1=C(C)NC2=C(C(=O)CC(c3ccc(OC)c(OC)c3)C2)C1c1cccs1 (configuration not stated)
EC50 (Plasmodium falciparum [1]): 70.9 nM | CC50 [2]: > 100000 nM | EC50 (Plasmodium falciparum [3]): 130 nM

O=C(CSc1ccc2nnc(-c3cccs3)n2n1)Nc1ccc2c(c1)OCCO2
EC50 (Plasmodium falciparum [1]): 573 nM | CC50 [2]: > 100000 nM | EC50 (Plasmodium falciparum [3]): 447 nM

COc1cccc2c1OCC(CN1CCC(C(=O)Nc3ccc(-n4cccn4)cc3)CC1)=C2
EC50 (Plasmodium falciparum [1]): > 1360 nM | CC50 [2]: > 100000 nM | EC50 (Plasmodium falciparum [3]): 817 nM

Oc1ccc(-c2ccnc3cc(Cl)ccc23)cc1CNCC1(O)CCCCC1
EC50 (Plasmodium falciparum [1]): < 23.8 nM | CC50 [2]: > 13700 nM | EC50 (Plasmodium falciparum [3]): 1020 nM

CN1CCc2c(sc3nc(SCc4ccc(F)cc4)n(-c4ccccc4)c(=O)c23)C1
EC50 (Plasmodium falciparum [1]): 320 nM | CC50 [2]: > 100000 nM | EC50 (Plasmodium falciparum [3]): 498 nM

Cc1nnc2sc(SCc3cccc([N+](=O)[O-])c3)nn2c1=O
EC50 (Plasmodium falciparum [1]): 942 nM | CC50 [2]: > 13900 nM | EC50 (Plasmodium falciparum [3]): > 1070 nM

O=C1Cc2c([nH]c3ccc(OCc4ccccc4)cc23)C2CC=CCC12 (configuration not stated)
EC50 (Plasmodium falciparum [1]): > 1250 nM | CC50 [2]: > 10000 nM | EC50 (Plasmodium falciparum [3]): 1590 nM

CC(C)c1ccc(C=CC(=O)NCc2ccco2)cc1
EC50 (Plasmodium falciparum [1]): 2000 nM | CC50 [2]: > 100000 nM | EC50 (Plasmodium falciparum [3]): 1480 nM
